Results on two molecules are retold here after PMC7118210 (Frontiers in Pharmacology, 2020).

A short description of data set [1]: Multiple-dose pharmacokinetics in dogs. The data set is classed as in vivo, Beagle dogs. The procedure:
The optimal volume and activity in unit volume of enzyme solution [0.2 M acetic acid/water solution: 0.2 M ammonium acetate/water solution, 15:35 (v/v)] were determined through a pretest of the enzyme (rat plasma, 10 μl, 10 U μl^-1; dog plasma, 10 μl, 10 U μl^-1; human plasma, 20 μl, 20 U μl^-1; human urine, 10 μl, 10 U μl^-1). After enzyme incubation, 10 μl of IS solution was added to the plasma and urine samples (2 μg ml^-1 quercetin 3-β-D-glucoside for rat and dog plasma; 583 ng ml^-1 naringin-D4 and 160 ng ml^-1 naringenin-D4 for human plasma; and 9,710 ng ml^-1 naringin-D4 and 6,000 ng ml^-1 naringenin-D4 for human urine). To each fecal sample, 9-fold methanol-normal saline (2:1, v/v) was added, mixed (18,000 rpm, 15 min) by vortexing and centrifuged (10 min, 9,000 rpm, 4°C). Next, 10 μl IS solution (971 ng ml^-1 naringin-D4 and 600 ng ml^-1 naringenin-D4) was added to the supernatants of feces (200 μl) without enzyme incubation. […] The solid material was dissolved with acetonitrile-water (1:1, v/v) and injected into the ultra high-performance liquid chromatography coupled with triple quadrupole mass spectrometry (UHPLC/MS/MS) system as described below. The analysis of nonclinical and clinical samples was performed with a UHPLC/MS/MS system that consisted of a Shimadzu Nexera X2 ultra high-performance liquid chromatography (UHPLC) (Shimadzu Corp., Kyoto, Japan) coupled with an AB Sciex API4000 triple-quadrupole mass spectrometry (MS/MS) system (AB Sciex, Foster City, CA, USA) equipped with an electrospray ionization source and controlled by Analyst (v. 1.6.2) software. […] The injection volume was 10 μl with the flow rate of 0.3 ml min^-1 for plasma, and 0.4 ml min^-1 for urine and feces. The compounds were detected by multiple reaction monitoring in the negative ion electrospray mode. The electrospray source conditions were as follows: ion source gas1 30 psi, ion source gas2 60 psi, curtain gas 20 psi, collisionally activated dissociation (CAD) gas 8 psi, temperature 500°C, and ion spray voltage −4,500 V. Zero air was used for ion source gas1 and ion source gas2 and nitrogen for curtain gas and CAD gas. […] All pharmacokinetic and excretion parameters were expressed as mean ± standard deviation (SD). All mean and SD values were reported to three significant figures. The pharmacokinetic parameters were calculated using the Phoenix WinNonlin software (Version 6.4, Pharsight Corp., Cary, NC, USA) and compared using the Student's t-test (p < 0.05) in SPSS 18.0 (SPSS Inc., Chicago, IL, USA). […] For the multiple-dose studies, pharmacokinetic parameters included the mean plasma level at steady state, Tmax, t1/2, the percent fluctuation, and the accumulation index (Table 3). […] In addition, we compared the pharmacokinetic parameters obtained from males and females (Tables 4–6).

Data set [2] has as its target T1, CYP 2D6 (Homo sapiens, UniProt P10635).
T1 construct: human liver microsomes (2.25 μl); tissue RILD Research Institute for Live Diseases (Shanghai, China) Co.Ltd; host or cells: human liver microsomes, 10-donor pooled
Kind of data set: CYP enzyme pathway, human liver microsomes with quinidine (system III-human). The data set is classed as in vitro ADME. The following applies: CYP2D6; of six metabolites measured in system III-human. The procedure:
Five single inhibitor working solutions were separately added. Their concentrations were as follows: α-naphthoflavone (0.04 mM) for CYP 1A2, sulfaphenazole (0.8 mM) for CYP 2C9, (+/-)-N-3-benzylnirvanol (0.8 mM) for CYP 2C19, quinidine (0.08 mM) for CYP 2D6, and ketoconazole (0.04 mM) for CYP 3A4/5. All protein concentrations were 0.15 mg ml^-1 in the incubation system, except 0.3 mg ml^-1 for the sulfaphenazole working solution. Then, NADPH (10 mM, 30 μl) was added and the mixed solution incubated for 45 min. Finally, cold acetonitrile (600 μl, containing 100 ng ml^-1 flufenamic acid) was added to every tube, mixed by vortexing, centrifuged for 30 min at 14,000 g and 4°C, and the supernatants transferred into centrifuge tubes and injected into the UHPLC/MS/MS system as described above. Incubations were run in triplicate experiments.
To analyze compounds in incubation system III-human, a Luna C18 column (Phenomenex Inc., Torrance, CA, USA; 2.0 mm × 50 mm, 5 μm) was used at 40°C. The mobile phase consisted of 0.1% formic acid (v/v) in water (A) and 0.1% formic acid in acetonitrile (B). […] The injection volume was 10 μl with flow rate of 0.2 ml min^-1. The compounds were detected by multiple reaction monitoring in the negative ion electrospray mode.
On the technique in general: Liver microsomes are a subcellular fraction often used to study metabolism.

Data set [3] is described as follows: Metabolites in rat liver microsomes (systems I-rat, II-rat). The data set is classed as in vitro ADME, Sprague-Dawley rat. The procedure: Then, NADPH-B (10 μl) was added and incubated for 2 h. […] Then, UDPGA (50 μl) was added and incubated for 2 h. […] Then, UDPGA (50 μl) was added and incubated for 2 h. In addition, the naringenin solution (1 mM, 10 μl) was evaluated in rat systems I, II, and III as above.
The incubated solution (500 μl) of systems I-rat, II-rat, III-rat, I-human, and II-human were extracted with ethyl acetate (500 μl) for at least 3 min by vortexing and centrifuged for 10 min at 13,000 rpm and 4°C. The extraction process described above was performed twice and all supernatants were transferred into centrifuge tubes, dried with N2, and dissolved with methanol-water (1:1, v/v). All samples were injected into a UPLC/Q-TOF-MS system consisting of a Waters Acquity ultra performance liquid chromatography (UPLC) coupled with a Micromass micro™ quadrupole time-of-flight mass spectrometry (Q-TOF-MS) system (Waters Corp., Milford, MA, USA), equipped with an electrospray ionization source, and controlled by the MassLynx (v. 4.1) software. Separation was performed on a Waters Acquity UPLC BEH C18 column (50 mm × 2.1 mm, 1.7 μm) at 40°C. The mobile phase consisted of 0.1% formic acid (v/v) in water (A) and methanol (B) using a linear gradient of 95% to 60% A (0–25 min), 60% to 40% A (25–35 min), 40% to 10% A (35–40 min), 10% A (40–43 min), 10% to 95% A (43–44 min), and 95% A (44–45 min). The injection volume was 5 μl with flow rate of 0.2 ml min^-1. The Q-TOF-MS worked in a full scan mode (100–1,200 m/z), selection ion mode, and product ion mode, in negative ion mode, respectively. The conditions were as follows: capillary voltage 3,000 V, sample cone voltage 30 V, extraction cone voltage 2.0 V, source temperature 100°C, desolvation temperature 350°C, cone gas (N2) flow rate of 40 L/h, desolvation gas (N2) flow rate of 700 L/h, low collision energy 6.0 eV, and high collision energy 20–80 eV. Compounds were detected with accurate mass using leucine enkephalin for mass correction at 554.2615 (m/z) in negative ionization mode.

Setting [4] is: naringin 12.4 mg kg^-1 multiple dose, dog, female.
Setting [5] is: naringin 12.4 mg kg^-1 multiple dose, dog, male.
Where [6] appears, read: naringin 12.4 mg kg^-1 p.o. three times a day, multiple dose, dog.

T1 sequence (P10635 whole entry): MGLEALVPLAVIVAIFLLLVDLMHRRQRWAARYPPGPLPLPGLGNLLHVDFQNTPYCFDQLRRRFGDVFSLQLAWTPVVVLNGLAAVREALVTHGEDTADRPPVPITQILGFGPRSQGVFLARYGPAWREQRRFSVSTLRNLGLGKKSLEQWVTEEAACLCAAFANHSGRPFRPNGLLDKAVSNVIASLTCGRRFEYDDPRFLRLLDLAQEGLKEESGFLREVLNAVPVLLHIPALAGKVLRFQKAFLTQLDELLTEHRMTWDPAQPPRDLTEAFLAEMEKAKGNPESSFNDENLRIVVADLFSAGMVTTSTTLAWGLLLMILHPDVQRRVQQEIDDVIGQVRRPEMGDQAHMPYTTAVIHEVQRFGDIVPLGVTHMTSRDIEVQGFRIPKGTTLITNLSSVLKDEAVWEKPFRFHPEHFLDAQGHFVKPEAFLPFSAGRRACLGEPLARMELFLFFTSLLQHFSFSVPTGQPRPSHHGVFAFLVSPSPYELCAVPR

Consider `C[C@@H]1O[C@@H](O[C@H]2[C@H](Oc3cc(O)c4c(c3)O[C@H](c3ccc(O)cc3)CC4=O)O[C@H](CO)[C@@H](O)[C@@H]2O)[C@H](O)[C@H](O)[C@H]1O` [naringin, Naringin], for which, in data set [1] (dogs), the “accumulation in multiple-dose study” value is listed as “no significant accumulation”. Besides, the CavSS was 22.1 ± 3.41 ng/mL in data set [1] (setting [4]), 15.1 ± 2.53 ng/mL in data set [1] (setting [5]) and 18.6 ± 4.68 ng/mL in data set [1] (setting [6]). Also, the Fluctuation in data set [1] (setting [4]) is reported as 370 ± 119%; in data set [1] (setting [5]) it was 242 ± 8.10%; in data set [1] (naringin 12.4 mg kg^-1 p.o. three times a day, multiple dose, dog, (CmaxSS−CminSS)/CavSS×100%) it was 306 ± 103%. For the same molecule, the “metabolites the enzyme contributes to” value in data set [2] is reported as “three metabolites”.

For the molecule `O=C1C[C@@H](c2ccc(O)cc2)Oc2cc(O)cc(O)c21` [naringenin, Naringenin], in data set [1] (dog, in vivo), the “accumulation in multiple-dose study” value is recorded as “no significant accumulation”. For the same molecule, the CavSS was 50.7 ± 16.1 ng/mL in data set [1] (setting [4]), 49 ± 10.4 ng/mL in data set [1] (setting [5]) and 49.8 ± 12.2 ng/mL in data set [1] (setting [6]). Further, the “found in rat liver microsomes, incubation of naringenin (S)” value in data set [3] is “+”.
